According to ChEMBL document CHEMBL1201862, “PubChem BioAssay data set” (2004):
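Compound exposure: 48 hours, 5 concentrations, 96-well plates. GI50 marks 50% less growth.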 The source made the active and inactive calls. Cut-off read from the data, not from the text of the source: active = GI50 up to about 1.1 µM and inactive = higher.

Columns and labels:
Assay in all cases: NCI tumour cell line growth inhibition, 48 h
SK-OV-3 = tested on: SK-OV-3
UACC-62 = tested on: UACC-62
NCI-H23 = tested on: NCI-H23
TK-10 = tested on: TK-10
SR = tested on: SR
COLO 205 = tested on: COLO 205
SW-620 = tested on: SW-620
SNB-75 = tested on: SNB-75
MDA-MB-231 = tested on: MDA-MB-231
MCF7 = tested on: MCF7
HOP-92 = tested on: HOP-92
HT-29 = tested on: HT-29
MDA-MB-435 = tested on: MDA-MB-435
HL-60 = tested on: HL-60
NCI/ADR-RES = tested on: NCI/ADR-RES
Hs-578T = tested on: Hs-578T
A498 = tested on: A498
IGROV-1 = tested on: IGROV-1
SK-MEL-2 = tested on: SK-MEL-2
UACC-257 = tested on: UACC-257

SMILES | GI50 (SK-OV-3) | GI50 (UACC-62) | GI50 (NCI-H23) | GI50 (TK-10) | GI50 (SR) | GI50 (COLO 205) | GI50 (SW-620) | GI50 (SNB-75) | GI50 (MDA-MB-231) | GI50 (MCF7) | GI50 (HOP-92) | GI50 (HT-29) | GI50 (MDA-MB-435) | GI50 (HL-60) | GI50 (NCI/ADR-RES) | GI50 (Hs-578T) | GI50 (A498) | GI50 (IGROV-1) | GI50 (SK-MEL-2) | GI50 (UACC-257)
CC1=NN(C(=O)CC(=O)NC(=O)/C=C\c2ccccc2)C(=O)C1/N=N/c1ccc([N+](=O)[O-])cc1 (stereo not given) | > 100 µM (inactive) | 24.3 µM (inactive) | 40.2 µM (inactive) | 48.5 µM (inactive) | > 10 µM (inactive) | > 100 µM (inactive) | > 100 µM (inactive) | 52.4 µM (inactive) | > 100 µM (inactive) | > 100 µM (inactive) | 38.3 µM (inactive) | > 100 µM (inactive) | > 100 µM (inactive) | > 100 µM (inactive) | > 100 µM (inactive) | 44 µM (inactive) | 20.5 µM (inactive) | 58.3 µM (inactive) |  | 
O=C1O[C@]2(c3ccccc3)C(c3ccccc3)=C[C@]2(C(=O)c2ccccc2)C1=O | 42.4 µM (inactive) | 29.8 µM (inactive) | 33.7 µM (inactive) | 27 µM (inactive) | 10.7 µM (inactive) | 48.2 µM (inactive) | 19.1 µM (inactive) | 3.92 µM (inactive) | 32.3 µM (inactive) | 28.4 µM (inactive) | 24 µM (inactive) | 55 µM (inactive) | 37.2 µM (inactive) | 5.98 µM (inactive) | 31.6 µM (inactive) | 39.2 µM (inactive) | 35.5 µM (inactive) | 33.1 µM (inactive) | 27.2 µM (inactive) | 30.3 µM (inactive)
Nc1nc(Cl)cc(NCC2(O)CC2)n1 | > 100 µM (inactive) | > 100 µM (inactive) | > 100 µM (inactive) | > 100 µM (inactive) | > 100 µM (inactive) |  | > 100 µM (inactive) | > 100 µM (inactive) | > 100 µM (inactive) | > 100 µM (inactive) | > 100 µM (inactive) | > 100 µM (inactive) | > 100 µM (inactive) | > 100 µM (inactive) | > 100 µM (inactive) | > 100 µM (inactive) | > 100 µM (inactive) | > 100 µM (inactive) | > 100 µM (inactive) | > 100 µM (inactive)
CCOC(=O)C1=C(C)OC(=O)[C@@]2(OC)C=C(Cl)[C@@]12C | > 100 µM (inactive) | > 100 µM (inactive) | > 100 µM (inactive) | > 100 µM (inactive) | > 100 µM (inactive) | > 100 µM (inactive) | > 100 µM (inactive) | > 100 µM (inactive) | > 100 µM (inactive) | > 100 µM (inactive) | > 100 µM (inactive) | > 100 µM (inactive) | > 100 µM (inactive) | 33 µM (inactive) | > 100 µM (inactive) | > 100 µM (inactive) | > 100 µM (inactive) | > 100 µM (inactive) |  | > 100 µM (inactive)
COC(=O)C1=C(C)NC2=C(C(=O)c3ccccc32)C1c1cn(-c2ccccc2)nc1-c1ccccc1 (stereo not given) | > 100 µM (inactive) | > 42.6 µM (inactive) | 20.7 µM (inactive) | > 100 µM (inactive) | 2 µM (inactive) | > 100 µM (inactive) | > 100 µM (inactive) | 1.56 µM (inactive) | > 100 µM (inactive) | 26.8 µM (inactive) | 18.3 µM (inactive) |  | 16.6 µM (inactive) | 23.2 µM (inactive) | 70.6 µM (inactive) | > 100 µM (inactive) | > 65.9 µM (inactive) | 6.24 µM (inactive) | > 59.3 µM (inactive) | > 85.3 µM (inactive)
C=C(C(=O)O)[C@@H]1C[C@@H]2O[C@H]1CC(C)=CCC/C(C)=C/CC[C@@]2(C)O |  | > 100 µM (inactive) |  | > 100 µM (inactive) | > 100 µM (inactive) | > 100 µM (inactive) | > 100 µM (inactive) | > 100 µM (inactive) | > 100 µM (inactive) | > 100 µM (inactive) | 93.5 µM (inactive) |  | > 100 µM (inactive) | > 100 µM (inactive) | > 100 µM (inactive) | > 100 µM (inactive) | > 100 µM (inactive) | > 100 µM (inactive) | > 100 µM (inactive) | > 100 µM (inactive)
CCCCCCCCCCCCOP(=O)(O)OCC(N)C(=O)O (stereo not given) | 17.1 µM (inactive) |  | 29.9 µM (inactive) | 24.7 µM (inactive) | 22 µM (inactive) | > 100 µM (inactive) | 44.4 µM (inactive) | 18.5 µM (inactive) | 23.9 µM (inactive) | 39.3 µM (inactive) | 20.5 µM (inactive) | 43.3 µM (inactive) | 18.2 µM (inactive) | 17.4 µM (inactive) | 36.3 µM (inactive) | 10.3 µM (inactive) | 24.6 µM (inactive) | 35.6 µM (inactive) | 22.8 µM (inactive) | 37.2 µM (inactive)
COc1ccc2cc(-c3nc(N)nc(N4N=C(C)CC4(C)C)n3)c(=N)oc2c1 | 23.6 µM (inactive) | 17.6 µM (inactive) | 16.5 µM (inactive) | 32.6 µM (inactive) | 13.9 µM (inactive) | 16.6 µM (inactive) |  |  | 18.8 µM (inactive) | 16.7 µM (inactive) | 19.7 µM (inactive) | 17.6 µM (inactive) | 18.5 µM (inactive) | 19.9 µM (inactive) | 31.4 µM (inactive) | 23.2 µM (inactive) | 32.3 µM (inactive) | 14.8 µM (inactive) | 17.5 µM (inactive) | 28.9 µM (inactive)
O=C1c2ccccc2C(=O)N1CCCCNOCCCN1C(=O)c2ccccc2C1=O | > 100 µM (inactive) | > 100 µM (inactive) | > 100 µM (inactive) | > 100 µM (inactive) | > 100 µM (inactive) | > 100 µM (inactive) | > 100 µM (inactive) | > 100 µM (inactive) | > 100 µM (inactive) | > 100 µM (inactive) | > 100 µM (inactive) | > 100 µM (inactive) | > 100 µM (inactive) |  | > 100 µM (inactive) | > 100 µM (inactive) | > 100 µM (inactive) | > 100 µM (inactive) |  | > 100 µM (inactive)
COc1ccc2nc3c(nc2c1)C(C)(C)C=C3c1ccc(Br)cc1 |  |  |  | > 100 µM (inactive) | > 100 µM (inactive) | > 100 µM (inactive) | 5.68 µM (inactive) | 87.7 µM (inactive) | > 100 µM (inactive) | > 100 µM (inactive) | 32.5 µM (inactive) | > 100 µM (inactive) | > 100 µM (inactive) | > 100 µM (inactive) | > 100 µM (inactive) | > 100 µM (inactive) | > 100 µM (inactive) | > 100 µM (inactive) | > 100 µM (inactive) | > 100 µM (inactive)
CN(C)c1ccc(-c2[nH]c(=O)c3ccccc3[n+]2C)cc1 | > 100 µM (inactive) | 47.5 µM (inactive) | 60 µM (inactive) | > 100 µM (inactive) | 49.4 µM (inactive) | 62.2 µM (inactive) | > 100 µM (inactive) | > 100 µM (inactive) | > 100 µM (inactive) | 46.7 µM (inactive) | 60.7 µM (inactive) | 63.4 µM (inactive) | 63.8 µM (inactive) | 83.8 µM (inactive) | 39.1 µM (inactive) | > 100 µM (inactive) | 99.1 µM (inactive) | > 100 µM (inactive) |  | 30.5 µM (inactive)
CC(=O)/N=C1/N(/C=C2\C(=O)Oc3ccccc3C2=O)C(=O)/C(=C/c2cccc(Cl)c2Cl)N1C | 17.2 µM (inactive) | 31 µM (inactive) | 23.9 µM (inactive) |  | 10.8 µM (inactive) | 31.3 µM (inactive) | 29.9 µM (inactive) | 17.3 µM (inactive) | 29.9 µM (inactive) | 25.7 µM (inactive) | 0.0333 µM (active) | 19.1 µM (inactive) | 25.6 µM (inactive) | 3.99 µM (inactive) | 22.5 µM (inactive) | 3.87 µM (inactive) | 4.68 µM (inactive) | 21.4 µM (inactive) | 19.8 µM (inactive) | 39 µM (inactive)
CC(C)(C)c1nc2c(o1)C(=O)c1ccccc1C2=O | 4.98 µM (inactive) | 0.653 µM (active) | 0.373 µM (active) | 5.65 µM (inactive) | 3.16 µM (inactive) | 4.81 µM (inactive) | 1.58 µM (inactive) | 2.96 µM (inactive) | 0.385 µM (active) | 0.485 µM (active) | 3.05 µM (inactive) | 3.9 µM (inactive) | 0.185 µM (active) | 0.718 µM (active) | 0.447 µM (active) | 0.927 µM (active) | 6.21 µM (inactive) | 2.46 µM (inactive) | 0.592 µM (active) | 0.519 µM (active)
CC(C)(C)C(=O)OC(N)/C=C/c1ccccc1 (stereo not given) | > 100 µM (inactive) | > 100 µM (inactive) | > 100 µM (inactive) |  | 94 µM (inactive) | > 100 µM (inactive) | > 100 µM (inactive) | > 100 µM (inactive) | > 100 µM (inactive) | > 100 µM (inactive) | > 100 µM (inactive) | > 100 µM (inactive) | > 100 µM (inactive) | 76.2 µM (inactive) | > 100 µM (inactive) | > 100 µM (inactive) | > 100 µM (inactive) | > 100 µM (inactive) | > 100 µM (inactive) | > 100 µM (inactive)
N=C(N)N/N=C/c1c(-c2ccc(Cl)cc2)nc2sccn12 | 2.66 µM (inactive) | 1.69 µM (inactive) | 4.43 µM (inactive) | 3.01 µM (inactive) | 3.46 µM (inactive) | 1.46 µM (inactive) | 1.55 µM (inactive) | 1.77 µM (inactive) | 2.77 µM (inactive) | 1.72 µM (inactive) | 2.1 µM (inactive) | 1.69 µM (inactive) | 1.74 µM (inactive) |  | 5.4 µM (inactive) | 4.97 µM (inactive) | 3.11 µM (inactive) | 1.85 µM (inactive) | 1.95 µM (inactive) | 1.95 µM (inactive)
